# According to patent US4536346A, “Aralkanamidophenyl compounds” (American Cyanamid Company, priority 1983, dated 1985):
# Molecular target: T1, fatty acyl CoA: cholesterol acyl transferase (ACAT) (Rattus norvegicus, UniProt O70536)
# T1 construct: The supernatant, containing the microsomal fraction, served as the source of the cholesterol-esterifying enzyme; from tissue; host or cells: rat adrenals (1,000 x g supernatant containing the microsomal fraction)
# T1 sequence (O70536 1-545): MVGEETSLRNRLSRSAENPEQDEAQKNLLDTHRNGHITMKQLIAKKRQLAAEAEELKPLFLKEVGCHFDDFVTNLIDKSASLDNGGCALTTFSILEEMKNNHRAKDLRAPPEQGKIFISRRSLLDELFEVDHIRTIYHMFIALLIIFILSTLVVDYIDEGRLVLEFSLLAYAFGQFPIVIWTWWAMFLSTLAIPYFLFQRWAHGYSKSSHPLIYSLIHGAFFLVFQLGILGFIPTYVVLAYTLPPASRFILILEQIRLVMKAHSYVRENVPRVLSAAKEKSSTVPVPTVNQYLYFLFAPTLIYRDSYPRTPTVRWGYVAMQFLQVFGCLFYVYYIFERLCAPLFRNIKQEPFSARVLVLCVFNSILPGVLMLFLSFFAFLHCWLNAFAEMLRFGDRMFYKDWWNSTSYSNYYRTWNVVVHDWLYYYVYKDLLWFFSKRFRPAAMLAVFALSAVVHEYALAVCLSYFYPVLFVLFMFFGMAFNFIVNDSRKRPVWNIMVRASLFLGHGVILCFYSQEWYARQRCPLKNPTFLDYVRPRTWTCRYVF
# Test: Inhibition of enzymatic esterification of cholesterol (ACAT) in rat adrenal supernatant containing the microsomal fraction
# Assay type: biochemical
# Settings: final concentration of test compound 5.2 μg./ml., percent inhibition of the ACAT enzyme compared to control values
# Protocol: The compounds of the present invention were tested for their ability to inhibit the enzymatic esterification of cholesterol according to the following procedure:
# Rat adrenals were homogenized in 0.2M monobasic potassium phosphate buffer, pH 7.4, and centrifuged at 1,000 times gravity for 15 minutes at 5° C. The supernatant, containing the microsomal fraction, served as the source of the cholesterol-esterifying enzyme, fatty acyl CoA: cholesterol acyl transferase (ACAT). A mixture comprising 50 parts of adrenal supernatant, 10 parts of albumin (BSA) (50 mg./ml.), […], 3 parts of test compound, and 500 parts of buffer was pre-incubated at 37° C. for 10 minutes. After treatment with 20 parts of oleoyl CoA (^14 C-0.4 μCi), the mixture was incubated at 37° C. for 10 minutes. A control mixture, omitting the test compound, was prepared and treated in the same manner. The lipids from the incubation mixture were extracted into an organic solvent and separated by thin-layer chromatography. The cholesterol ester fraction was counted in a scintillation counter. This procedure is a modification of that described by Hashimoto, et al., Life Scie., 12 (Part II), 1-12 (1973).
# The results of this test on representative compounds of this invention appear in Table I. The final concentration of the test compound was 5.2 μg./ml., and the effectiveness of the compound is expressed as percent inhibition of the ACAT enzyme compared to control values.
row,inhibition at 5.2 µg/mL,Structure (SMILES)
1,91%,"COc1ccc(C(CC(=O)Nc2ccc(Cl)cc2)c2ccc(OC)cc2)cc1 [N--(p-Chlorophenyl)-3,3-bis(4-methoxyphenyl)propionamide]"
2,89%,"Cc1ccc(C(CC(=O)Nc2ccc(Cl)cc2)c2ccc(C)cc2)cc1 [N--(p-Chlorophenyl)-3,3-bis(p-tolyl)propionamide]"
3,94%,"COc1ccc(C(CC(=O)Nc2ccc(C#N)cc2)c2ccc(OC)cc2)cc1 [N--(p-Cyanophenyl)-3,3-bis(4-methoxyphenyl)propionamide]"
4,90%,"Cc1ccc(C(CC(=O)Nc2ccc(C#N)cc2)c2ccc(C)cc2)cc1 [N--(p-Cyanophenyl)-3,3-bis(p-tolyl)propionamide]"
5,92%,"COc1ccc(C(CC(=O)Nc2ccc(F)cc2)c2ccc(OC)cc2)cc1 [N--(p-Fluorophenyl)-3,3-bis(4-methoxyphenyl)propionamide]"
6,92%,"Cc1ccc(C(CC(=O)Nc2ccc(F)cc2)c2ccc(C)cc2)cc1 [N--(p-Fluorophenyl)-3,3-bis(p-tolyl)propionamide]"
7,58%,"COc1ccc(NC(=O)CC(c2ccc(OC)cc2)c2ccc(OC)cc2)cc1 [N--(p-Methoxyphenyl)-3,3-bis(4-methoxyphenyl)propionamide]"
8,94%,"COc1ccc(C(CC(=O)Nc2ccc([N+](=O)[O-])cc2)c2ccc(OC)cc2)cc1 [N--(p-Nitrophenyl)-3,3-bis(4-methoxyphenyl)propionamide]"
9,97%,"COc1ccc(C(CC(=O)Nc2ccc(C)cc2)c2ccc(OC)cc2)cc1 [N--(p-Tolyl)-3,3-bis(4-methoxyphenyl)propionamide]"
10,66%,"Cc1ccc(NC(=O)CC(c2ccc(C)cc2)c2ccc(C)cc2)cc1 [N--(p-Tolyl)-3,3-bis(p-tolyl)propionamide]"
11,92%,"COc1ccc(C(CC(=O)Nc2ccc(C(F)(F)F)cc2)c2ccc(OC)cc2)cc1 [N--(p-Trifluoromethylphenyl)-3,3-bis(4-methoxyphenyl)propionamide]"
12,94%,"Cc1ccc(C(CC(=O)Nc2ccc(C(F)(F)F)cc2)c2ccc(C)cc2)cc1 [N--(p-Trifluoromethylphenyl)-3,3-bis(p-tolyl)propionamide]"
13,91%,"COc1ccc(C(CC(=O)Nc2ccccc2)c2ccc(OC)cc2)cc1 [N--Phenyl-3,3-bis(4-methoxyphenyl)propionamide]"
14,50%,"O=C(CC(c1ccc(Cl)cc1)c1ccc(Cl)cc1)Nc1ccccc1 [N--Phenyl-3,3-bis(p-chlorophenyl)propionamide]"
15,82%,"Cc1ccc(C(CC(=O)Nc2ccccc2)c2ccc(C)cc2)cc1 [N--Phenyl-3,3-bis(p-tolyl)propionamide]"
16,40%,"CCOC(=O)c1ccc(NC(=O)C=C(c2ccccc2)c2ccccc2)cc1 [p-(3,3-Diphenylacrylamido)benzoic acid, ethyl ester]"

# More lines, now with the values behind:
row,Structure (SMILES),inhibition at 5.2 µg/mL
1,"Cc1ccc(C(=CC(=O)Nc2ccc(C(=O)O)cc2)c2ccc(C)cc2)cc1 [4-[3,3-Di-(p-tolyl)acrylamido]benzoic acid]",89%
2,"CCOC(=O)c1ccc(NC(=O)CCCCCc2ccc(Cl)cc2)cc1 [4-[6-(p-Chlorophenyl)hexanamido]benzoic acid, ethyl ester]",42%
3,"CCOC(=O)COC(=O)c1ccc(NC(=O)C=C(c2ccc(Cl)cc2)c2ccc(Cl)cc2)cc1 [4-[p-Chloro-β-(p-chlorophenyl)cinnamamido]benzoic acid, ethyl glycolate ester]",88%
4,"CCOC(=O)c1ccc(NC(=O)CC(c2ccc(OC)cc2)c2ccc(OC)cc2)cc1 [Ethyl 4'-[3,3-bis(4-methoxyphenyl)propionamido]benzoate]",91%
5,"CCOC(=O)c1ccc(NC(=O)CC(c2ccc(C)cc2)c2ccc(C)cc2)cc1 [Ethyl 4'-[3,3-bis(4-methylphenyl)propionamido]benzoate]",95%
6,"CC(=O)c1ccc(NC(=O)CC(c2ccc(Cl)cc2)c2ccc(Cl)cc2)cc1 [N--(4-Acetylphenyl)-3,3-bis(p-chlorophenyl)propionamide]",95%
7,"N#Cc1ccc(NC(=O)CC(c2ccc(Cl)cc2)c2ccc(Cl)cc2)cc1 [N--(4-Cyanophenyl)-3,3-bis(p-chlorophenyl)propionamide]",96%
8,"O=C(CC(c1ccc(Cl)cc1)c1ccc(Cl)cc1)Nc1ccc(F)cc1 [N--(4-Fluorophenyl)-3,3-bis(p-chlorophenyl)propionamide]",67%
9,"Cc1ccc(NC(=O)CC(c2ccc(Cl)cc2)c2ccc(Cl)cc2)cc1 [N--(4-Tolyl)-3,3-bis(p-chlorophenyl)propionamide]",36%
10,"O=C(CC(c1ccc(Cl)cc1)c1ccc(Cl)cc1)Nc1ccc(C(F)(F)F)cc1 [N--(4-Trifluoromethylphenyl)-3,3-bis(p-chlorophenyl)propionamide]",35%
11,"COc1ccc(C(CC(=O)Nc2ccc(Br)cc2)c2ccc(OC)cc2)cc1 [N--(p-Bromophenyl)-3,3-bis(4-methoxyphenyl)propionamide]",79%
